Measured values from PubChem BioAssay (NCI).
“And” between values parts separate entries of the source, which are not always exact repeats. Identical values can stand only once.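 48-hour exposure; five concentrations; linearly interpolated endpoints. At the GI50, growth is halved. TGI is the concentration that stops growth completely.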

Columns and labels:
Test in all cases: NCI-60 cell line screen, 48 h
[1] = system: 786-0 renal
[2] = system: A498 renal
[3] = system: A549 NSCLC
[4] = system: ACHN renal
[5] = system: CAKI-1 renal
[6] = system: CCRF-CEM leukemia
[7] = system: COLO 205 colon
[8] = system: DLD-1 colon
[9] = system: DMS 114 small cell lung
[10] = system: DMS 273 small cell lung
[11] = system: EKVX NSCLC
[12] = system: HCC-2998 colon
[13] = system: HCT-116 colon
[14] = system: HCT-15 colon
[15] = system: HL-60(TB) leukemia
[16] = system: HOP-62 NSCLC
[17] = system: HOP-92 NSCLC
[18] = system: HT29 colon
[19] = system: IGROV1 ovarian
[20] = system: K-562 leukemia
[21] = system: KM12 colon
[22] = system: KM20L2 colon
[23] = system: LOX IMVI melanoma
[24] = system: LXFL 529 NSCLC
[25] = system: M14 melanoma
[26] = system: M19-MEL melanoma
[27] = system: MALME-3M melanoma
[28] = system: MOLT-4 leukemia
[29] = system: NCI-H226 lung
[30] = system: NCI-H23 lung
[31] = system: NCI-H460 lung
[32] = system: NCI-H522 lung
[33] = system: OVCAR-3 ovarian
[34] = system: OVCAR-4 ovarian
[35] = system: OVCAR-5 ovarian
[36] = system: OVCAR-8 ovarian
[37] = system: RPMI-8226 leukemia
[38] = system: RXF 393 renal
[39] = system: SF-268 CNS
[40] = system: SF-295 CNS
[41] = system: SF-539 CNS
[42] = system: SK-MEL-2 melanoma
[43] = system: SK-MEL-28 melanoma
[44] = system: SK-MEL-5 melanoma
[45] = system: SK-OV-3 ovarian
[46] = system: SN12C renal
[47] = system: SNB-19 CNS
[48] = system: SNB-75 CNS
[49] = system: SNB-78 CNS
[50] = system: SW-620 colon
[51] = system: TK-10 renal
[52] = system: U251 CNS
[53] = system: UACC-257 melanoma
[54] = system: UACC-62 melanoma
[55] = system: UO-31 renal
[56] = system: XF 498 CNS

CCOC(=O)/N=c1\ss/c(=N\C(=S)N(C)C)n1-c1ccccc1
TGI [1]: > 100 µM
GI50 [2]: 35 µM
TGI [2]: > 100 µM
GI50 [3]: > 100 µM
TGI [3]: > 100 µM
TGI [4]: > 100 µM
TGI [5]: > 100 µM
TGI [6]: > 100 µM
GI50 [7]: > 100 µM
TGI [7]: > 100 µM
GI50 [8]: > 100 µM
TGI [8]: > 100 µM
GI50 [9]: > 100 µM
GI50 [10]: 77.1 µM
TGI [10]: > 100 µM
TGI [11]: > 100 µM
GI50 [12]: > 100 µM
TGI [12]: > 100 µM
GI50 [13]: > 100 µM
TGI [13]: > 100 µM
GI50 [14]: > 100 µM
TGI [14]: > 100 µM
GI50 [15]: > 100 µM
TGI [15]: > 100 µM
TGI [16]: > 100 µM
TGI [17]: 94.2 µM
TGI [18]: > 100 µM
GI50 [19]: > 100 µM
TGI [19]: > 100 µM
TGI [20]: > 100 µM
GI50 [21]: > 100 µM
TGI [21]: > 100 µM
GI50 [22]: > 100 µM
TGI [22]: > 100 µM
TGI [23]: > 100 µM
TGI [24]: > 100 µM
GI50 [25]: > 100 µM
TGI [25]: > 100 µM
GI50 [26]: > 100 µM
GI50 [27]: > 100 µM
TGI [27]: > 100 µM
GI50 [28]: > 100 µM
TGI [28]: > 100 µM
GI50 [29]: > 100 µM
TGI [29]: > 100 µM
TGI [30]: > 100 µM
GI50 [31]: 35.2 µM
TGI [31]: > 100 µM
GI50 [32]: 0.401 µM
GI50 [33]: 23.2 µM
GI50 [34]: > 100 µM
TGI [35]: > 100 µM
GI50 [36]: > 100 µM
TGI [36]: > 100 µM
GI50 [37]: > 100 µM
TGI [37]: > 100 µM
GI50 [38]: 15.3 µM
TGI [38]: 7.13 µM and 44.2 µM
GI50 [39]: 44.7 µM
TGI [39]: > 100 µM
TGI [40]: > 100 µM
TGI [41]: > 100 µM
TGI [42]: > 100 µM
GI50 [43]: 28.7 µM
TGI [43]: > 100 µM
GI50 [44]: 18.8 µM
TGI [44]: > 100 µM
GI50 [45]: > 100 µM
TGI [45]: > 100 µM
GI50 [46]: > 100 µM
TGI [46]: > 100 µM
TGI [47]: > 100 µM
GI50 [48]: 4.69 µM
TGI [48]: 28.3 µM
TGI [49]: > 100 µM
GI50 [50]: > 100 µM
TGI [50]: > 100 µM
TGI [51]: > 100 µM
TGI [52]: 71.3 µM
GI50 [53]: > 100 µM
TGI [53]: > 100 µM
TGI [54]: > 100 µM
GI50 [55]: > 100 µM
TGI [55]: > 100 µM
TGI [56]: > 100 µM
